The data set in a line: in vitro. The settings on record: rat, gh3-tre-luc cells.

Where a name gives a salt, the structure may show the parent alone. Where only a bound is given, the exact number is not on record here.

A word on the CC50: it is the concentration giving 50% cytotoxicity. Lower therefore signals greater toxicity to the cells. For the compound `CCC1(c2ccccc2)C(=O)NC(=O)N(C(=O)c2ccccc2)C1=O` (stereo not shown) [Benzobarbital], for the setting “AC50 (uM) modified / 1000”, the CC50 at 24 h is > 50 µM.
Same read-out and setting: in the case of `CC(C)[C@H]1CC[C@@H](C)CC1=O` (stereo in doubt) [(2R,5R)-5-Methyl-2-(propan-2-yl)cyclohexanone] it was > 90 µM; in that of `O=c1c2ccccc2oc2ccccc12` [Xanthone], > 90 µM.
Same read-out and setting: the same measure for `O=C1CCCC1` [Cyclopentanone]: > 90 µM.
With `c1ccc2cc3c(ccc4ccccc43)cc2c1` [Benz(a)anthracene], the CC50 at 24 h (AC50 (uM) modified / 1000) was > 90 µM.
The same measure, in the same setting: in the case of `C[C@H](N)C(=O)c1ccccc1` [(-)- (S)-Cathinone hydrochloride] it was > 50 µM.
Still for that read-out and setting: in the case of `CCCC/C=C/CCCCO` [(E)-5-Decen-1-ol] it was > 90 µM.
As for `O=C1c2ccccc2C(=O)C1C(=O)C(c1ccccc1)c1ccc(Cl)cc1` (stereo not shown) [Chlorophacinone], half-maximal cytotoxicity (AC50 (uM) modified / 1000, Tox21_110001=Tox21_301565, viability, 1 nM T3 present, 24 h) (CC50 at 24 h) was put at 42.3 µM.
Compound `CC(Cc1cccc(C(F)(F)F)c1)NCCOC(=O)c1ccccc1` (stereo not shown) [Benfluorex hydrochloride] had a CC50 at 24 h (AC50 (uM) modified / 1000) of 27.3 µM.
Same read-out and setting: in the case of `Nc1nc(N)c(-c2ccccc2)s1` [Amiphenazole] it was > 50 µM; in that of `OCCC(F)(F)C(F)(F)C(F)(F)C(F)(F)C(F)(F)C(F)(F)C(F)(F)C(F)(F)F` [8:2 Fluorotelomer alcohol], > 90 µM; in that of `C/C=C1\[C@H]2C=C(C)C[C@]1(N)c1ccc(=O)[nH]c1C2` [Huperzine A], > 50 µM.
The same measure, in the same setting: the same measure for `CCCC1CCC(=O)CC1` [4-Propylcyclohexanone]: > 90 µM.
Same read-out and setting: in the case of `CCCCOC(=O)C(C)CC` (stereo not shown) [Butyl 2-methylbutyrate] it was > 90 µM; in that of `O=C1C(N(CO)C(=O)NCO)N(CO)C(=O)N1CO` (stereo not shown) [Diazolidinyl urea], > 90 µM.
As to `NNCc1ccccc1` [Benzylhydrazine dihydrochloride], for the setting “AC50 (uM) modified / 1000, Tox21_110001=Tox21_200489, viability, 1 nM T3 present, 24 h”, the CC50 at 24 h was > 90 µM.
In the case of `CCCCCCCCCCCCCCN(C)C` [N,N-Dimethyltetradecylamine], the CC50 at 24 h (AC50 (uM) modified / 1000) is > 20 µM.
On to `O=C(O)COc1ccccc1/C=N/NC(=O)c1ccncc1` [Aconiazide], for which the CC50 at 24 h (AC50 (uM) modified / 1000) was > 50 µM.
The same measure, in the same setting: in the case of `CC(=O)C1CCOC1=O` (stereo not shown) [3-Acetyldihydro-2(3H)-furanone] it was > 100 µM.
Still for that read-out and setting: the same measure for `S=C=NCCc1ccccc1` [Phenethyl isothiocyanate]: 79.7 µM.
Same read-out and setting: the same measure for `CC(C)c1ccc2sc3ccccc3c(=O)c2c1` [2-(Propan-2-yl)-9H-thioxanthen-9-one]: > 90 µM; for `O=C(O)c1nc(=O)[nH]c(=O)[nH]1` [Potassium oxonate]: > 50 µM; for `O=C(O)COc1ccc(CCNS(=O)(=O)c2ccccc2)s1` [Linotroban]: > 50 µM.
`Cc1cccc(O)c1N` [2-Amino-m-cresol] displayed a CC50 at 24 h (AC50 (uM) modified / 1000) of 66.6 µM.
As to `OCC1CO1` (stereo not shown) [Glycidol], for the setting “AC50 (uM) modified / 1000”, the CC50 at 24 h is > 90 µM.
Take `CCN(CC)C(=O)N1CCN(C)CC1` [Diethylcarbamazine citrate]: where the note is “AC50 (uM) modified / 1000”, the CC50 at 24 h is > 20 µM.
On to `CC(=O)NCCCCCC(=O)O` [Acexamic acid], for which, under “AC50 (uM) modified / 1000”, the CC50 at 24 h was > 50 µM.
Same read-out and setting: in the case of `CC(O)CO` (stereo not shown) [1,2-Propylene glycol] it was > 90 µM.
As for `c1ccc(CNc2ncnc3nc[nH]c23)cc1` [N-Benzyladenine], the CC50 at 24 h (AC50 (uM) modified / 1000) was > 90 µM.
Regarding `Cc1ccc(C=O)s1` [5-Methyl-2-thiophenecarboxaldehyde], the CC50 at 24 h (AC50 (uM) modified / 1000) was > 90 µM.
Still for that read-out and setting: the same measure for `Cc1cc(C)c(NC(=O)CN(CC(=O)O)CC(=O)O)c(C)c1Br` [Mebrofenin]: > 50 µM; for `CCCCCCCCCCCC(=O)O` [Dodecanoic acid]: > 90 µM; for `O=[N+]([O-])c1cc([N+](=O)[O-])c2ccc(S(=O)(=O)O)cc2c1O` [8-Hydroxy-5,7-dinitro-2-naphthalenesulfonic acid]: 65.4 µM.
Still for that read-out and setting: in the case of `CCCC(=O)OC(C)(C)Cc1ccccc1` [1,1-Dimethyl-2-phenylethyl butanoate] it was > 90 µM.
Turning to `ClCC(Br)CBr` (stereo not shown) [1,2-Dibromo-3-chloropropane], the CC50 at 24 h (AC50 (uM) modified / 1000, Tox21_110001=Tox21_200382, viability, 1 nM T3 present, 24 h) was > 90 µM.
In the case of `O=C(NC(O)C(Cl)(Cl)Cl)NC(O)C(Cl)(Cl)Cl` (stereo not shown) [Dichloralurea], for the setting “AC50 (uM) modified / 1000”, the CC50 at 24 h was > 50 µM.
On the same count and under the same terms, in the case of `CC(=O)CCc1ccc(OC(C)=O)cc1` [4-(4-(Acetyloxy)phenyl)-2-butanone] it was > 90 µM; in that of `COc1cc([C@@H]2c3cc4c(cc3[C@@H](O[C@@H]3O[C@@H]5CO[C@@H](c6cccs6)O[C@H]5[C@H](O)[C@H]3O)[C@H]3COC(=O)[C@H]23)OCO4)cc(OC)c1O` [Teniposide], 4.5 µM.
On the same count and under the same terms, the same measure for `COCC(C)N` (stereo not shown) [1-Methoxy-2-propylamine]: > 90 µM; for `O=[N+]([O-])c1cccc(I)c1` [1-Iodo-3-nitrobenzene]: > 90 µM; for `c1ccc(CCCc2ccncc2)cc1` [4-(3-Phenylpropyl)pyridine]: > 90 µM.
On to `CO[C@H]1C[C@H](O[C@H]2[C@H](C)O[C@@H](O[C@@H]3/C(C)=C/C[C@@H]4C[C@@H](C[C@]5(C=C[C@H](C)[C@@H](C6CCCCC6)O5)O4)OC(=O)[C@@H]4C=C(C)[C@@H](O)[C@H]5OC/C(=C\C=C\[C@@H]3C)[C@]54O)C[C@@H]2OC)O[C@@H](C)[C@@H]1O` [Doramectin], for which, under “AC50 (uM) modified / 1000”, the CC50 at 24 h was 2.94 µM.
On the same count and under the same terms, in the case of `CCCCN(CCCC)c1ccc(C(=O)c2ccccc2C(=O)O)c(O)c1` [2-[4-(Dibutylamino)-2-hydroxybenzoyl]benzoic acid] it was 46.7 µM; in that of `CC(=O)OCC=C(C)C` [3,3-Dimethylallyl acetate], > 60 µM; in that of `Cc1onc(-c2ccccc2Cl)c1C(=O)N[C@@H]1C(=O)N2[C@@H]1SC(C)(C)[C@@H]2C(=O)O` [Cloxacillin sodium], > 20 µM.
On the same count and under the same terms, in the case of `O=C(Nc1ccc2[nH]ccc2c1)c1cc2cc(F)ccc2n1Cc1cccc(F)c1` [SAR115740] it was 14.6 µM.
`CNCC(=O)N[C@@H](CCCN=C(N)N)C(=O)N[C@H](C(=O)N[C@@H](Cc1ccc(O)cc1)C(=O)N[C@H](C(=O)N[C@@H](Cc1cnc[nH]1)C(=O)N1CCC[C@H]1C(=O)N[C@@H](C)C(=O)O)C(C)C)C(C)C` [Saralasin]: the CC50 at 24 h (AC50 (uM) modified / 1000) is > 50 µM.
The same measure, in the same setting: in the case of `CCCC(C)C1(CC)C(=O)NC(=S)NC1=O` (stereo not shown) [Thiopental sodium] it was > 50 µM.
On to `O=[N+]([O-])c1cccc2cccc([N+](=O)[O-])c12` [1,8-Dinitronaphthalene], for which, where the note is “AC50 (uM) modified / 1000, Tox21_110001=Tox21_202886, viability, 1 nM T3 present, 24 h”, the CC50 at 24 h is > 90 µM.
For the compound `CN(C/C=C/C#CC(C)(C)C)Cc1cccc2ccccc12` [Terbinafine], the CC50 at 24 h (AC50 (uM) modified / 1000) was determined as 38.3 µM. That is a double-digit micromolar value.
On the same count and under the same terms, the same measure for `COc1cc(C[C@H](C)N)c(OC)cc1C` [(S)-(+)-2,5-Dimethoxy-4-methylamphetamine hydrochloride]: > 100 µM; for `O=[N+]([O-])c1cc(C2CCCCC2)c(O)c([N+](=O)[O-])c1` [Dinex]: 8.98 µM.
Still for that read-out and setting: the same measure for `NNC(=O)c1ccccc1` [Benzoyl hydrazine]: > 90 µM.
Still for that read-out and setting: in the case of `OCCCCCCO` [1,6-Hexanediol] it was > 90 µM; in that of `Nc1ccc(N)c2c1C(=O)c1ccccc1C2=O` [1,4-Diaminoanthraquinone], 55.3 µM.
With `CN[C@@H]1C[C@@H](c2ccc(Cl)c(Cl)c2)c2ccccc21` [Indatraline hydrochloride], the CC50 at 24 h (AC50 (uM) modified / 1000) turned out to be 10 µM.
On to `N#CCc1cccc(C(F)(F)F)c1` [[3-(Trifluoromethyl)phenyl]acetonitrile], for which the CC50 at 24 h (AC50 (uM) modified / 1000) is > 90 µM.
Regarding `C=C(C)C(=O)OCCCCCCCCCC` [Decyl methacrylate], the CC50 at 24 h (AC50 (uM) modified / 1000) was > 90 µM.
On the same count and under the same terms, in the case of `C[C@H]1[C@H](O)O[C@@H]2O[C@@]3(C)CC[C@H]4[C@H](C)CC[C@@H]1[C@@]24OO3` [Artenimol] it was 1.39 µM.
For `CCCCOC(=O)[C@@H](C)Oc1ccc(Oc2ccc(C#N)cc2F)cc1` [Cyhalofop-butyl], the CC50 at 24 h (AC50 (uM) modified / 1000, Tox21_110001=Tox21_301029, viability, 1 nM T3 present, 24 h) was > 90 µM.
Consider `O=C(Cc1cccs1)N[C@@H]1C(=O)N2C(C(=O)[O-])=C(C[n+]3ccccc3)CS[C@H]12` [Cephaloridine], for which the CC50 at 24 h (AC50 (uM) modified / 1000) is > 50 µM.
The same measure, in the same setting: in the case of `O=C(Cl)c1cc(C(=O)Cl)cc(C(=O)Cl)c1` [1,3,5-Benzenetricarbonyl trichloride] it was 80 µM.
On the same count and under the same terms, the same measure for `CCCCCCOC(=O)CC(CC(=O)OCCCCCC)(OC(=O)CCC)C(=O)OCCCCCC` [Butyryl trihexyl citrate]: > 90 µM.
The same measure, in the same setting: in the case of `Oc1ccccc1Cl` [2-Chlorophenol] it was > 90 µM; in that of `NCC1(Cc2noc(=O)[nH]2)CCCCC1` [PD 0200347], > 90 µM.
`CN[C@@H]1[C@@H](O)[C@@H](O[C@@H]2[C@@H](O)[C@H](O[C@H]3O[C@H](CN)[C@@H](O)[C@H](O)[C@H]3O)[C@@H](N)C[C@H]2NC(=O)[C@@H](O)CN)OC[C@]1(C)O` [Isepamicin sulfate]: the CC50 at 24 h (AC50 (uM) modified / 1000) was > 50 µM.
The same measure, in the same setting: the same measure for `Cc1ccc(C)c([N+](=O)[O-])c1` [1,4-Dimethyl-2-nitrobenzene]: > 90 µM; for `NC(N)=NN=C(/C=C/c1ccc([N+](=O)[O-])o1)/C=C/c1ccc([N+](=O)[O-])o1` [Nitrovin]: 1.82 µM.
Still for that read-out and setting: in the case of `CCCCNCC` [N-Ethyl-N-butylamine] it was > 90 µM; in that of `Cc1ccc(Cl)c(Nc2ccccc2C(=O)O)c1Cl` [Meclofenamate sodium], > 50 µM.
Still for that read-out and setting: in the case of `CN(CC1(C)CCCO1)S(=O)(=O)c1ccc(Cl)c(S(N)(=O)=O)c1` (stereo not shown) [Mefruside] it was > 50 µM.
For `Nc1ccc(S(=O)(=O)Nc2ccccc2)cc1` [Sulfabenz], the CC50 at 24 h (AC50 (uM) modified / 1000) was > 50 µM.
Same read-out and setting: in the case of `CCOC(=O)CC(=O)C(=O)OCC` [Sodium diethyl oxaloacetate] it was > 90 µM.

The values above are taken from paper PMC6792352, “Limited Chemical Structural Diversity Found to Modulate Thyroid Hormone Receptor in the Tox21 Chemical Library” (Environmental Health Perspectives, 2019).
